From ChEMBL document CHEMBL5620415, “Design, synthesis and anti-hepatic fibrosis activity of novel diphenyl vitamin D receptor agonists” (Eur J Med Chem, 2023)
Activity calls are given as the source filed them. The rule behind the calls is not given here.

Experiments:
[1] = biological target: T1, Vitamin D3 receptor (Homo sapiens) (UniProt P11473); assay: Binding affinity to human full-length Vitamin D receptor assessed as relative binding affinity at 1 uM incubated for 2 hrs by fluorescence polarization based competitive binding assay relative to calcipotriol; details: filed as agonist
T1 sequence (whole entry): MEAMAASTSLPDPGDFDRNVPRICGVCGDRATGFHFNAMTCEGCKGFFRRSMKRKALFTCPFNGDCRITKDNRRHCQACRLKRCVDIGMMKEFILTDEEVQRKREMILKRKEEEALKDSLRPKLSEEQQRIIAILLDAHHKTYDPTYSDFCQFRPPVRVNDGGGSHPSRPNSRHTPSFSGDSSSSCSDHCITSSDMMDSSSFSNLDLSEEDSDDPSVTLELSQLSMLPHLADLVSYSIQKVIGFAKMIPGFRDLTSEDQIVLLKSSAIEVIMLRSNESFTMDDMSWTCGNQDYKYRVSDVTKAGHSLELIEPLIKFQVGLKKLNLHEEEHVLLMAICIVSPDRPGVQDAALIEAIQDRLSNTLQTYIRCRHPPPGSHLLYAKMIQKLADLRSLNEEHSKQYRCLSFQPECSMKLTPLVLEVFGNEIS

[2] = Cytotoxicity against human LX-2 cells by CCK-8 assay; type: toxicity, cell-based
[3] = biological target: T1, Vitamin D3 receptor (Homo sapiens); assay: Agonist activity at Vitamin D receptor in human LX-2 cells assessed as transcriptional activity by measuring induction of CYP24A expression at 0.5 uM by RT-qPCR analysis relative to control; type: cell-based; details: filed as agonist
[4] = biological target: T1, Vitamin D3 receptor (Homo sapiens); assay: Agonist activity at Vitamin D receptor in HEK293 cells assessed as receptor transactivation incubated for 48 hrs by dual-luciferase reporter assay; type: cell-based; details: filed as agonist, dose 0.01-1 µM
LX-2 [5] = assay: Inhibition of TGF-beta1 induced human LX-2 cell activation assessed as inhibition of collagen I expression at 0.5 uM by Western blot analysis relative to control; type: functional, cell-based
LX-2 [6] = assay: Inhibition of TGF-beta1 induced human LX-2 cell activation assessed as inhibition of alpha-SMA expression at 0.5 uM by Western blot analysis relative to control; type: functional, cell-based
Mus musculus [7] = assay: Anti-fibrotic effect in improving CCl4-induced hepatic fibrosis C57BL/6 mouse model assessed as uniform liver parenchyma at 500 ug/kg, po five times a week for 2 weeks by qualitative ultrasound imaging analysis; type: functional, organism-based; details: dose 500.0 µg/kg
Mus musculus [8] = assay: Anti-fibrotic effect in improving CCl4-induced hepatic fibrosis C57BL/6 mouse model assessed as decrease in liver to kidney brightness ratio at 500 ug/kg, po five times a week for 2 weeks by qualitative ultrasound imaging analysis; type: functional, organism-based; details: dose 500.0 µg/kg
Mus musculus [9] = assay: Anti-fibrotic effect in CCl4-induced hepatic fibrosis C57BL/6 mouse model assessed as reduction in hepatic fibrosis lesions at 500 ug/kg, po five times a week for 2 weeks by Hematoxylin-Eosin (H&E) staining based assay; type: functional, organism-based; details: dose 500.0 µg/kg
Mus musculus [10] = assay: Anti-fibrotic effect in CCl4-induced hepatic fibrosis C57BL/6 mouse model assessed as reduction the lesions at 500 ug/kg, po five times a week for 2 weeks by Hematoxylin-Eosin (H&E) staining based assay; type: functional, organism-based; details: dose 500.0 µg/kg
Mus musculus [11] = assay: Anti-fibrotic effect in CCl4-induced hepatic fibrosis C57BL/6 mouse model assessed as decrease in inflammatory cell infiltration at 500 ug/kg, po five times a week for 2 weeks by Hematoxylin-Eosin (H&E) staining based assay; type: functional, organism-based; details: dose 500.0 µg/kg
Mus musculus [12] = assay: Anti-fibrotic effect in CCl4-induced hepatic fibrosis C57BL/6 mouse model assessed as inhibition of proliferation of fibrous tissue at 500 ug/kg, po five times a week for 2 weeks by Hematoxylin-Eosin (H&E) staining based assay; type: functional, organism-based; details: dose 500.0 µg/kg
Mus musculus [13] = assay: Anti-fibrotic effect in CCl4-induced hepatic fibrosis C57BL/6 mouse model assessed as inhibition of collagen deposition at 500 ug/kg, po five times a week for 2 weeks by Hematoxylin-Eosin (H&E) staining based assay; type: functional, organism-based; details: dose 500.0 µg/kg
Mus musculus [14] = assay: Anti-fibrotic effect in CCl4-induced hepatic fibrosis C57BL/6 mouse model assessed as reduction in hepatic fibrosis lesions at 500 ug/kg, po five times a week for 2 weeks by Masson's Trichrome staining based assay; type: functional, organism-based; details: dose 500.0 µg/kg
Mus musculus [15] = assay: Anti-fibrotic effect in CCl4-induced hepatic fibrosis C57BL/6 mouse model assessed as reduction the lesions at 500 ug/kg, po five times a week for 2 weeks by Masson's Trichrome staining based assay; type: functional, organism-based; details: dose 500.0 µg/kg
Mus musculus [16] = assay: Anti-fibrotic effect in CCl4-induced hepatic fibrosis C57BL/6 mouse model assessed as decrease in inflammatory cell infiltration at 500 ug/kg, po five times a week for 2 weeks by Masson's Trichrome staining based assay; type: functional, organism-based; details: dose 500.0 µg/kg
Mus musculus [17] = assay: Anti-fibrotic effect in CCl4-induced hepatic fibrosis C57BL/6 mouse model assessed as inhibition of proliferation of fibrous tissue at 500 ug/kg, po five times a week for 2 weeks by Masson's Trichrome […] staining based assay; type: functional, organism-based; details: dose 500.0 µg/kg
Mus musculus [18] = assay: Anti-fibrotic effect in CCl4-induced hepatic fibrosis C57BL/6 mouse model assessed as inhibition of collagen deposition at 500 ug/kg, po five times a week for 2 weeks by Masson's Trichrome […] staining based assay; type: functional, organism-based; details: dose 500.0 µg/kg
Mus musculus [19] = assay: Anti-fibrotic effect in CCl4-induced hepatic fibrosis C57BL/6 mouse model assessed as inhibition of serum AST level at 500 ug/kg, po five times a week for 2 weeks; type: functional, organism-based; details: dose 500.0 µg/kg
Mus musculus [20] = assay: Anti-fibrotic effect in CCl4-induced hepatic fibrosis C57BL/6 mouse model assessed as inhibition of serum ALT level at 500 ug/kg, po five times a week for 2 weeks; type: functional, organism-based; details: dose 500.0 µg/kg
Mus musculus [21] = assay: Anti-fibrotic effect in CCl4-induced hepatic fibrosis C57BL/6 mouse model assessed as inhibition of serum total bile acid (TBA) level at 500 ug/kg, po five times a week for 2 weeks; type: functional, organism-based; details: dose 500.0 µg/kg
[22] = Toxicity in CCl4-induced hepatic fibrosis C57BL/6 mouse model assessed as serum hypercalcemia at 100 ug/kg, po five times a week for 2 weeks by calcium assay kit; type: organism-based; details: in vivo, 0.1 mg/kg, 336 h, dose 100 µg/kg

SMILES: CCC(Oc1ccc(CO)c(CO)c1)c1cccc(OCCCC(O)(CC)CC)c1 (configuration not stated)
- RBA [1]: 54.3%
- IC50 [2]: > 30 µM
- Activity [3]: Active
- Activity [4]: Dose-Dependent Effect
- inhibition (LX-2 [5]): Active
- inhibition (LX-2 [6]): Active
- Activity (Mus musculus [7]): Active
- Activity (Mus musculus [8]): Active
- Activity (Mus musculus [9]): Active
- Activity (Mus musculus [10]): Active
- Activity (Mus musculus [11]): Active
- Activity (Mus musculus [12]): Active
- Activity (Mus musculus [13]): Active
- Activity (Mus musculus [14]): Active
- Activity (Mus musculus [15]): Active
- Activity (Mus musculus [16]): Active
- Activity (Mus musculus [17]): Active
- Activity (Mus musculus [18]): Active
- Activity (Mus musculus [19]): Active
- Activity (Mus musculus [20]): Active
- Activity (Mus musculus [21]): Active

SMILES: C=C1/C(=C\C=C2/CCC[C@]3(C)[C@@H]([C@H](C)/C=C/[C@@H](O)C4CC4)CC[C@@H]23)C[C@@H](O)C[C@@H]1O [CALCIPOTRIENE]
- Activity [22]: Non-Toxic
